Assay results from patent US9352049B2, “Ligand-therapeutic agent conjugates, silicon-based linkers, and methods for making and using them” (Albany Molecular Research, Inc., priority 2013, dated 2016).
Where a name gives a salt, the structure may show the parent alone. Read-outs that look alike come from different tables or passages of the source.

Key:
[1] = test system: Folate receptor (FR)-positive KB cells; experiment: cells; assay type: cell-based, Human; settings: for IC50: read-out: IC50, Inhibition of Cell Growth by the PrestoBlue Method; for inhibition at 10 µM: KB, read-out: Percentage inhibition at the highest concentration tested (10 μM)
Experimental: (§1) Folate receptor (FR)-positive KB cells (Human) from European Collection of Cell Cultures (ECACC) [Catalogue #94050408] or FR-negative human lung carcinoma A549 cells from American Type Culture Collection (ATCC) [Catalogue # CCL-185] were maintained in T75 flasks in folic acid-free RPMI 1640 medium (Invitrogen, catalogue no. 27016021) containing 10% fetal bovine serum (FBS; Invitrogen, catalogue no. 16140-071) and penicillin/streptomycin (Invitrogen, catalogue no. 15140-122) at 37° C., 5% CO2.
(§2) Cells were harvested from their maintenance cultures and seeded in 96-well plates at a density of 10000 cells per well in 100 μL folic acid-free RPMI 1640 medium and incubated at 37° C., 5% CO2 for 20-24 hours. Thirty minutes prior to compound treatment, spent medium was removed and replaced with 100 μL fresh folic acid-free RPMI 1640 medium either as such, or supplemented with 100 μmol/L folic acid. The test compounds were diluted to three times their desired final concentrations in the culture medium from their DMSO stocks. […] Following compound treatment, the cells were washed thrice with 100 μL medium and incubated with 180 μL fresh medium for 72 hours. To assess cell viability, 20 μL of PrestoBlue reagent (Invitrogen, catalogue # A-13261) was added to the wells and the plates were further incubated for 1 hour at 37° C. The PrestoBlue reagent contains a cell-permeant dye, resazurin, which is blue in color and virtually nonfluorescent. When added to cells, it is reduced by the mitochondrial enzymes in viable cells to red, highly fluorescent resorufin. Resazurin reduction is proportional to the number of metabolically active cells and therefore can be measured quantitatively. Following incubation with the PrestoBlue reagent for 1 hour, fluorescence corresponding to the resorufin dye was read on a Synergy 4 multimode microplate reader (Biotek Instruments) with the excitation and emission wavelengths set at 540 nm and 590 nm respectively. The data was analysed using XLFit and the percentage inhibition of cell proliferation was calculated.

[2] = test system: FR-negative human lung carcinoma A549 cells; experiment: cells; assay type: cell-based; settings: for IC50: read-out: IC50, Inhibition of Cell Growth by the PrestoBlue Method; for inhibition at 10 µM: read-out: Percentage inhibition at the highest concentration tested (10 μM)
Experimental: as §1, §2

[3] = Cleavage study of silyl conjugates at pH 7.4 (THF:0.01 M PBS buffer, 37° C.); assay type: physicochemical; settings: THF:0.01 M PBS buffer (pH 7.4), 37° C., over 20 hours
Experimental: To study the release properties of the silyl conjugates, the conjugates were subject to hydrolysis conditions at both pH 7.4 and pH 4.5 to simulate blood and endosomes/lysosome environments, respectively.
Example 12 and Example 15 were dissolved in THF:0.01 M PBS buffer (pH 7.4) and heated to 37° C. with stirring for over 20 hours. […] Additionally, Example 11 was trapped with methyl-3-mercaptopropionate to approximate a bioconjugate.

[4] = Homo sapiens, No FA, incubation 2 h
[5] = Homo sapiens, No FA, incubation 4 h
[6] = Homo sapiens, No FA, incubation 8 h
[7] = Homo sapiens, No FA, incubation 16 h

CC[C@]1(O)CC2CN(CCc3c([nH]c4ccccc34)[C@@](C(=O)OC)(c3cc4c(cc3OC)N(C)[C@H]3[C@@](O)(C(=O)OC)[C@H](O[Si]5(CCCCC(=O)NCCOCCOCCOCCNC(=O)CC[C@H](NC(=O)c6ccc(NCc7cnc8nc(N)nc(O)c8n7)cc6)C(=O)O)CCCCC5)[C@]5(CC)C=CCN6CC[C@]43[C@@H]65)C2)C1 (some centres unmarked) [Example 21]
IC50 ([1]; 100 μM FA, incubation 2 h): 6 µM
IC50 ([1]; 100 μM FA, incubation 4 h): 4 µM
IC50 ([1]; 100 μM FA, incubation 8 h): 3.1 µM
IC50 ([1]; 100 μM FA, incubation 16 h): 1.7 µM
IC50 ([1]; No FA, incubation 2 h): 4.1 µM
IC50 ([1]; No FA, incubation 4 h): 3.1 µM
IC50 ([1]; No FA, incubation 8 h): 2.3 µM
IC50 ([1]; No FA, incubation 16 h): 1.5 µM
Percentage inhibition at the highest concentration tested (10 μM) ([2]; 100 μM FA, incubation 2 h): 40%
IC50 ([2]; 100 μM FA, incubation 2 h): > 10 µM
IC50 ([2]; 100 μM FA, incubation 4 h): 8.6 µM
IC50 ([2]; 100 μM FA, incubation 8 h): 5.3 µM
IC50 ([2]; 100 μM FA, incubation 16 h): 1.8 µM
Percentage inhibition at the highest concentration tested (10 μM) ([2]; No FA, incubation 2 h): 8%
IC50 ([2]; No FA, incubation 2 h): > 10 µM
Percentage inhibition at the highest concentration tested (10 μM) ([2]; No FA, incubation 4 h): 24%
IC50 ([2]; No FA, incubation 4 h): > 10 µM
Percentage inhibition at the highest concentration tested (10 μM) ([2]; No FA, incubation 8 h): 47%
IC50 ([2]; No FA, incubation 8 h): > 10 µM
IC50 ([2]; No FA, incubation 16 h): 4.4 µM

Nc1nc(O)c2nc(CNc3ccc(C(=O)N[C@@H](CCC(=O)NCCOCCOCCNC(=O)CCCC[Si]4(O)CCCCC4)C(=O)O)cc3)cnc2n1 [Compound Z, (S)-2-(4-(((2-amino-4-hydroxypteridin-6-yl)methyl)amino)benzamido)-20-(1-hydroxysilinan-1-yl)-5,16-dioxo-9,12-dioxa-6,15-diazaicosan-1-oic acid triethylammonium salt, reference compound]
IC50 ([1]; 100 μM FA, incubation 2 h): > 10 µM
IC50 ([1]; 100 μM FA, incubation 4 h): > 10 µM
IC50 ([1]; 100 μM FA, incubation 8 h): > 10 µM
IC50 ([1]; 100 μM FA, incubation 16 h): > 10 µM
inhibition at 10 µM ([1]; Homo sapiens, 2 h, 100 μM FA, incubation 2 h): 1%
inhibition at 10 µM ([1]; Homo sapiens, 2 h, No FA, incubation 2 h): ≤ 0%
inhibition at 10 µM ([1]; Homo sapiens, 4 h, 100 μM FA, incubation 4 h): ≤ 0%
inhibition at 10 µM ([1]; Homo sapiens, 4 h, No FA, incubation 4 h): ≤ 0%
inhibition at 10 µM ([1]; Homo sapiens, 8 h, 100 μM FA, incubation 8 h): ≤ 0%
inhibition at 10 µM ([1]; Homo sapiens, 8 h, No FA, incubation 8 h): ≤ 0%
inhibition at 10 µM ([1]; Homo sapiens, 16 h, 100 μM FA, incubation 16 h): 2%
inhibition at 10 µM ([1]; Homo sapiens, 16 h, No FA, incubation 16 h): 1%
IC50 [1, 4]: > 10 µM
IC50 [1, 5]: > 10 µM
IC50 [1, 6]: > 10 µM
IC50 [1, 7]: > 10 µM
IC50 ([2]; 100 μM FA, incubation 2 h): > 10 µM
IC50 ([2]; 100 μM FA, incubation 4 h): > 10 µM
IC50 ([2]; 100 μM FA, incubation 8 h): > 10 µM
IC50 ([2]; 100 μM FA, incubation 16 h): > 10 µM
inhibition at 10 µM ([2]; Homo sapiens, A549, 2 h, 100 μM FA, incubation 2 h): 9%
inhibition at 10 µM ([2]; Homo sapiens, A549, 2 h, No FA, incubation 2 h): 7%
inhibition at 10 µM ([2]; Homo sapiens, A549, 4 h, 100 μM FA, incubation 4 h): ≤ 0%
inhibition at 10 µM ([2]; Homo sapiens, A549, 4 h, No FA, incubation 4 h): ≤ 0%
inhibition at 10 µM ([2]; Homo sapiens, A549, 8 h, 100 μM FA, incubation 8 h): ≤ 0%
inhibition at 10 µM ([2]; Homo sapiens, A549, 8 h, No FA, incubation 8 h): ≤ 0%
inhibition at 10 µM ([2]; Homo sapiens, A549, 16 h, 100 μM FA, incubation 16 h): 3.5%
inhibition at 10 µM ([2]; Homo sapiens, A549, 16 h, No FA, incubation 16 h): ≤ 0%
IC50 [2, 4]: > 10 µM
IC50 [2, 5]: > 10 µM
IC50 [2, 6]: > 10 µM
IC50 [2, 7]: > 10 µM

CC[C@]1(O)CC2CN(CCc3c([nH]c4ccccc34)[C@@](C(=O)OC)(c3cc4c(cc3OC)N(C)[C@H]3[C@@](O)(C(=O)OC)[C@H](O[Si]5(CCCCC(=O)OCc6ccccc6)CCCC5)[C@]5(CC)C=CCN6CC[C@]43[C@@H]65)C2)C1 (stereo partly drawn) [Example 12, (3aR,3a^1R,4R,5S,10bR)-methyl 4-((1-(5-(benzyloxy)-5-oxopentyl)silolan-1-yl)oxy)-3a-ethyl-9-((5S,7R,9S)-5-ethyl-5-hydroxy-9-(methoxycarbonyl)-2,4,5,6,7,8,9,10-octahydro-1H-3,7-methano[1]azacycloundecino[5,4-b]indol-9-yl)-5-hydroxy-8-methoxy-6-methyl-3a,3a^1,4,5,5a,6,11,12-octahydro-1H-indolizino[8,1-cd]carbazole-5-carboxylate]
hydrolysis (e.g. parent vinca) at pH 7.4 [3]: No evidence of hydrolysis

CCC1(O)CC2CN(CCc3c([nH]c4ccccc34)C(C(=O)OC)(c3cc4c(cc3OC)N(C)C3C(O)(C(=O)OC)C(O[Si]5(CCCCC(=O)NCCOCCOCCNC(=O)CCC(NC(=O)c6ccc(NCc7cnc8nc(N)nc(O)c8n7)cc6)C(=O)O)CCCCC5)C5(CC)C=CCN6CCC43C65)C2)C1 (centres unmarked) [Example 20]
IC50 ([1]; 100 μM FA, incubation 2 h): 4.2 µM
IC50 ([1]; 100 μM FA, incubation 4 h): 3.4 µM
IC50 ([1]; 100 μM FA, incubation 8 h): 3.1 µM
IC50 ([1]; 100 μM FA, incubation 16 h): 1.5 µM
IC50 ([1]; No FA, incubation 2 h): 3.5 µM
IC50 ([1]; No FA, incubation 4 h): 2.6 µM
IC50 ([1]; No FA, incubation 8 h): 1.8 µM
IC50 ([1]; No FA, incubation 16 h): 0.3 µM
Percentage inhibition at the highest concentration tested (10 μM) ([2]; 100 μM FA, incubation 2 h): 44%
IC50 ([2]; 100 μM FA, incubation 2 h): > 10 µM
IC50 ([2]; 100 μM FA, incubation 4 h): 6.6 µM
IC50 ([2]; 100 μM FA, incubation 8 h): 4.1 µM
IC50 ([2]; 100 μM FA, incubation 16 h): 1.4 µM
Percentage inhibition at the highest concentration tested (10 μM) ([2]; No FA, incubation 2 h): 20%
IC50 ([2]; No FA, incubation 2 h): > 10 µM
Percentage inhibition at the highest concentration tested (10 μM) ([2]; No FA, incubation 4 h): 46%
IC50 ([2]; No FA, incubation 4 h): > 10 µM
IC50 ([2]; No FA, incubation 8 h): 6.7 µM
IC50 ([2]; No FA, incubation 16 h): 1.4 µM

CC[C@]1(O)C[C@H]2CN(CCc3c([nH]c4ccccc34)[C@@](C(=O)OC)(c3cc4c(cc3OC)N(C)[C@@H]3C45CCN4CC=C[C@](CC)([C@H]45)[C@@H](O)[C@]3(O)C(=O)OC)C2)C1 (some centres unmarked) [4-desacetylvinblastine, reference compound]
IC50 ([1]; No FA, incubation 2 h): 0.045 µM
IC50 ([1]; No FA, incubation 4 h): 0.01 µM
IC50 ([1]; No FA, incubation 8 h): 0.002 µM
IC50 ([1]; No FA, incubation 16 h): 0.003 µM
IC50 ([2]; No FA, incubation 2 h): 4.6 µM
IC50 ([2]; No FA, incubation 4 h): 0.633 µM
IC50 ([2]; No FA, incubation 8 h): 0.129 µM
IC50 ([2]; No FA, incubation 16 h): 0.057 µM
